The values that follow come from the NIST ThermoML archive (doi:10.1016/j.jct.2014.06.030).

A word on the speed of sound: it is the propagation velocity of pressure waves in the medium. What is called mass density is the mass of a sample divided by its volume.

For this series the following is noted: 101.33 kPa, Liquid; for speed of sound: Sing-around technique in a fixed-path interferometer; for mass density: Vibrating tube method.

± gives the expanded uncertainty stated by the source.

Turning to `C1CCOCC1` [tetrahydropyran], the speed of sound was determined as 1269.8 ± 1.2 m/s (298.15 K), 1246.8 ± 1.2 m/s (303.15 K) and 1224.4 ± 1.2 m/s (308.15 K). For the same molecule, the mass density stood at 879.13 ± 1 kg/m3 (298.15 K), 873.99 ± 1 kg/m3 (303.15 K) and 868.83 ± 1 kg/m3 (308.15 K).

As to `C1CCCCC1` [cyclohexane], the speed of sound by setting is: (298.15 K) 1253.6 ± 1.2 m/s; (303.15 K) 1229.1 ± 1.2 m/s; (308.15 K) 1205.1 ± 1.2 m/s. Further, the mass density runs as follows: (298.15 K) 773.94 ± 1 kg/m3; (303.15 K) 769.21 ± 1 kg/m3; (308.15 K) 764.45 ± 1 kg/m3.

For the molecule `CNC=O` [N-methylformamide], the speed of sound (298.15 K) turned out to be 1431.6 ± 1.3 m/s, the speed of sound (303.15 K) is 1417.4 ± 1.3 m/s and the speed of sound (308.15 K) is 1402.2 ± 1.3 m/s. Also, the mass density (298.15 K) is listed as 999 ± 1 kg/m3, the mass density (303.15 K) stood at 994.65 ± 1 kg/m3 and the mass density (308.15 K) is listed as 990.3 ± 1 kg/m3.

Turning to `Cc1ccccc1Cl` [2-chlorotoluene], the speed of sound was determined as 1298.7 ± 1.4 m/s (298.15 K), 1280.7 ± 1.4 m/s (303.15 K) and 1262.7 ± 1.4 m/s (308.15 K). Further, the mass density came out at 1077.3 ± 1 kg/m3 (298.15 K), 1072.5 ± 1 kg/m3 (303.15 K) and 1067.6 ± 1 kg/m3 (308.15 K).

On to `CN(C)C=O` [dimethylformamide], for which the speed of sound came out at 1458.5 ± 1.2 m/s (298.15 K), 1440.2 ± 1.2 m/s (303.15 K) and 1420.8 ± 1.2 m/s (308.15 K). Moreover, the mass density by setting is: (298.15 K) 944.6 ± 1 kg/m3; (303.15 K) 939.83 ± 1 kg/m3; (308.15 K) 935.05 ± 1 kg/m3.
